The results in this text go back to US10344071B2, “Identification of novel anti-fibrotic peptide in C-terminal region of the MET receptor tyrosine kinase” (MUSC Foundation for Research Development, priority 2015, dated 2019).

Common to all, as to format: cell-based, human
Experiment [1] concerns alveolar epithelial cells (AEC, A549). Description: Caspase 3 Assay, FasL- and cisplatin-induced apoptosis. The settings on record: for FasL-induced apoptosis (caspase 3 activity) / cisplatin-induced apoptosis (caspase 3 activity): AEC, 24 hours, peptide treatment, p<0.01; for apoptosis, level of active caspase 3: AEC incubated 24 h with the inducer. How it is done:
FIG. 7 depicts alveolar epithelial cells (AEC) transfected with MET WT but not with MET D1398G are protected from FasL- and cisplatin-induced apoptosis. Transfected AEC were incubated with or without FasL or cisplatin for 24 hours, collected with lysis buffer and analyzed by Caspase 3 Assay as detailed in Materials and Methods.
FIG. 17A depicts 1403 and 1404 peptides inhibit collagen in TGFβ-stimulated LF. Cells were incubated with and without TGFβ (5 ng/ml), 1403, and 1404 peptides (1 μg/ml) or scrambled peptide (Control, Co) for 24 h and analyzed by immunoblotting using anti-collagen type I antibody. FIG. 17B depicts 1403 and 1404 but not M10 protect AEC from FasL- and cisplatin-induced apoptosis. AEC were incubated with or without 1403, 1404, or scrambled (Control) peptides, FasL, and cisplatin for 24 hours and analyzed by Caspase 3 Assay from Abcam.
Caspase 3 Assay Kit (Abcam, Cambridge, Mass.) was used to detect apoptosis in cultured cells. The cells were plated on 100 mm plates, transfected with MET WT or D1398G, and treated with or without FasL and cisplatin for 24 h. Cell lysates were collected in accordance to with the manufacturer's instructions, transferred to a 96-well plate, and incubated with DEVD-p-NA substrate at 37° C. for 2 hours followed by reading the absorbance at 405 nm on a spectrophotometer.
A cell-protective effect of HGF and MET have been reported in AEC in numerous studies (Crestani, et al., Proc Am Thorac Soc, 2012, 9(3):158-63 and Gazdhar, et al., Hum Gene Ther, 2013, 24(1):105-16). To investigate if the D1398G mutation interferes with anti-apoptotic effects of MET in AEC, apoptosis of AEC with FasL and cisplatin and measured caspase 3 activity in cell lysates was induced. […] In contrast, AEC transfected with the MET D1398G mutant were not protected from FasL- and cisplatin-induced apoptosis.
To investigate if the 1403 and 1404 peptides have anti-apoptotic effects in AEC, apoptosis of AEC was induced with FasL and cisplatin and measured caspase 3 activity in cell lysates. […] In contrast, AEC treated with scrambled peptide were not protected from FasL- and cisplatin-induced apoptosis (FIG. 17B).

The subject of experiment [2] is fetal lung fibroblasts (MRC5 immortal cell line). Description: TGFβ-induced collagen type I, immunoblot. Particulars: peptide 1 μg/ml, TGFβ 5 ng/ml, 24 h. On the procedure:
FIG. 11, comprising FIG. 11A and FIG. 11B, depicts the effect of M10 on TGFβ-induced collagen type 1. FIG. 11A depicts MRC5 cells, normal lung fibroblasts, and normal skin fibroblasts were incubated with or without M10, scrambled peptide (Scr), and TGFβ for 48 hours in serum-free medium. Cell extracts were immunoblotted with anticollagen type I and anti-β-actin antibodies. FIG. 11B depicts densitometric analysis of collagen type I immunoblots from 2 independent experiments.
FIG. 17A depicts 1403 and 1404 peptides inhibit collagen in TGFβ-stimulated LF. Cells were incubated with and without TGFβ (5 ng/ml), 1403, and 1404 peptides (1 μg/ml) or scrambled peptide (Control, Co) for 24 h and analyzed by immunoblotting using anti-collagen type I antibody. […] AEC were incubated with or without 1403, 1404, or scrambled (Control) peptides, FasL, and cisplatin for 24 hours and analyzed by Caspase 3 Assay from Abcam.
Cells were collected and analyzed by immunoblotting as previously described (Bogatkevich et al., J Biol Chem. 2001, 276:45184-45192; Bogatkevich et al., Arthritis Rheum. 2007, 56:3468-3477). The phosphorylation of Smad2 was analyzed by Western blot using anti-phospho-Smad2 antibody in accordance with the manufacturer's instructions (Cell Signaling Technology). […] Total amount of Smad2 was evaluated by re-blotting with anti-Smad2 polyclonal antibody. […]
For orientation: A western blot detects proteins with antibodies after separation by electrophoresis.

Experiment [3] has as its system caspase-3. The experiment is described as follows: Cisplatin-induced cleaved caspase-3, Western blot. The settings on record: for cleaved or active caspase-3 by Western blot: 50 μM for 24 h.
Protocol: FIG. 5, comprising FIG. 5A and FIG. 5B, depicts effects of cisplatin in lung fibroblasts (LF) and alveolar epithelial cells (AEC) transfected with MET WT and MET D1398G. FIG. 5A depicts transfected cells were incubated with or without cisplatin for 24 hours. The cells were collected with lysis buffer and analyzed by Western blot with indicated antibodies. FIG. 5B depicts densitometric analysis of uncleaved MET detected by C12 antibody. Values are the mean and SD from three independent experiments.

On to “DDEVDTRPAS (1403 Peptide) [compound 1403, M5 peptide with added caspase-3 cleavage sites and an additional N-terminal aspartic acid]”, for which, in experiment [1], the “FasL-induced apoptosis (caspase 3 activity)” value is “significantly reduced apoptosis” and the “cisplatin-induced apoptosis (caspase 3 activity)” value is listed as “significantly reduced apoptosis”. Also, the “levels of TGFβ-induced collagen” value in experiment [2] is “significantly reduced”.
As to `N.N.[Cl][Pt][Cl]` [cisplatin], the “apoptosis, level of active caspase 3” value in experiment [1] is on record as “resulted in apoptosis reflected by an increase in the level of active caspase 3”. The “cleaved caspase by Western blot” value in experiment [3] (AEC and LF, 100 μM) is given as “yielded cleaved caspase not only in AEC but also in LF”. Also, the “cleaved or active caspase-3 by Western blot” value in experiment [3] (AEC) is “detectable”; in experiment [3] (LF), “not in LF”.
Regarding “DEVDTRPAS (1404 Peptide) [compound 1404, M5 peptide with added caspase-3 cleavage sites]”, in experiment [1], the “FasL-induced apoptosis (caspase 3 activity)” value is “significantly reduced apoptosis” and the “cisplatin-induced apoptosis (caspase 3 activity)” value is reported as “significantly reduced apoptosis”. For the same molecule, the “levels of TGFβ-induced collagen” value in experiment [2] was “significantly reduced”.

B1: FasL: inducer of apoptosis in AEC (protein, UniProt P48023 130-281, looked up)
Tumor necrosis factor ligand …: QIGHPSPPPEKKELRKVAHLTGKSNSRSMPLEWEDTYGIVLLSGVKYKKGGLVINETGLYFVYSKVYFRGQSCNNLPLSHKVYMRNSKYPQDLVMMEGKMMSYCTTGQMWARSSYLGAVFNLTSADHLYVNVSELSLVNFEESQTFFGLYKL
Regarding B1, in experiment [1], the “apoptosis, level of active caspase 3” value is reported as “resulted in apoptosis reflected by an increase in the level of active caspase 3”.
